# pIC50: −log10 of the molar value.
# Biological target: T1, TvSNAT (Thermoplasma volcanium, UniProt Q97CT7)
# T1 construct: gene TVG0012647
# Experiment: HPLC of N-acetylserotonin, dose-dependent inhibition of serotonin acetylation
# Assay type: biochemical
# Details: serotonin 0.5 mM; acetyl-CoA 0.5 mM; pH 8.8; 45 °C; suggested alternative substrate; 50% point read by authors, no fit; read-out: SNAT activity decreased to 50%
# T1 sequence (Q97CT7 entry or part of it): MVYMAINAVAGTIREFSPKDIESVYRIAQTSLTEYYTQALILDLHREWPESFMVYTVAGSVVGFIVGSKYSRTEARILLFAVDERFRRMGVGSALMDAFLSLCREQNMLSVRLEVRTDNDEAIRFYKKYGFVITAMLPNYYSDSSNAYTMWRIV
row,SMILES,pIC50
1,NC[C@H](O)c1ccc(O)cc1 [octopamine],~3.30
2,NCCCCNCCCN [spermidine],~4.00

# From PMC8945778, “Functional Characterization of Serotonin N-Acetyltransferase in Archaeon Thermoplasma volcanium” (Antioxidants, 2022)
